{"source": "paper PMC6981117", "about": "“Redox-coupled proton pumping drives carbon concentration in the photosynthetic complex I” (Nature Communications, 2020)", "molecular_target": "T1, NDH-1MS (NDH-1_3), photosynthetic complex I; NdhF3 subunit (Thermosynechococcus vestitus, UniProt Q8DKF5)", "T1 construct": "native complex from T. elongatus thylakoid membranes, C-terminal TwinStrep tag on CupS; NdhV not resolved; with CO2 hydration protein CupA; CO2 uptake protein CupS; NAD(P)H-quinone oxidoreductase chain 4-3; NAD(P)H-quinone oxidoreductase subunit 1; NAD(P)H-quinone oxidoreductase subunit 2; NAD(P)H-quinone oxidoreductase subunit 3; NAD(P)H-quinone oxidoreductase subunit 4L; NAD(P)H-quinone oxidoreductase subunit 6; NAD(P)H-quinone oxidoreductase subunit L; NAD(P)H-quinone oxidoreductase subunit S; NAD(P)H-quinone oxidoreductase subunit H; NAD(P)H-quinone oxidoreductase subunit I; NAD(P)H-quinone oxidoreductase subunit J; NAD(P)H-quinone oxidoreductase subunit K; NAD(P)H-quinone oxidoreductase subunit M; NAD(P)H-quinone oxidoreductase subunit N; NAD(P)H-quinone oxidoreductase subunit O", "T1 sequence (Q8DKF5 1-611)": "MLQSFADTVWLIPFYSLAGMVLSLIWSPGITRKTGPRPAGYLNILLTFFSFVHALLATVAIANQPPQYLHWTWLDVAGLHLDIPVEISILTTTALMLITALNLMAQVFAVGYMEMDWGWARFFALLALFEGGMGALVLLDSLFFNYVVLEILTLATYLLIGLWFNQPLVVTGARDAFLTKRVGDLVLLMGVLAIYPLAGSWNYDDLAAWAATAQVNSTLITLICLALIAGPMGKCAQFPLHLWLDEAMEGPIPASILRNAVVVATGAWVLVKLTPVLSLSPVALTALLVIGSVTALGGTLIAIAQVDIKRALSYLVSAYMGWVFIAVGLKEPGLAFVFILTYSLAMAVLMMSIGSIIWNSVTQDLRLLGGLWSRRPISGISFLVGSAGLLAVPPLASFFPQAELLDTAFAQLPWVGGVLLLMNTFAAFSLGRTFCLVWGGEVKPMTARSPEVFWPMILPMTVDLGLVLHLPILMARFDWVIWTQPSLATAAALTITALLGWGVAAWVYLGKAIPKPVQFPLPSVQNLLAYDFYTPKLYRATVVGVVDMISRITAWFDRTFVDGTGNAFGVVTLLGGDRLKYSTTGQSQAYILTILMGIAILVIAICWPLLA", "assay": "cryo-EM structure, […] Å", "assay_type": "binding", "settings": "co-purified; motif with chlorophyll a in NdhF3", "data": [{"smiles": "CC1=C(/C=C/C(C)=C/C=C/C(C)=C/C=C/C=C(C)/C=C/C=C(C)/C=C/C2=C(C)CCCC2(C)C)C(C)(C)CCC1", "note": "[β-carotene]", "values": [{"measurement": "cryo-EM structure, 3.2 Å", "value": "NdhF3 binds a chlorophyll a/β-carotene motif that connects via His469 of NdhF3"}]}]}
